Where two headings read alike, the source gives them in different places.
Columns and labels:
Calu-3 cells = assay: MTT cell viability assay on Calu-3 cells after exposure to test solutions; assay type: cell-based, Human; conditions: for Calu-3 model prediction (irritant if viability 50% and below) compared with European Union class / Calu-3 cells killed: 60 min exposure; for Calu-3 model prediction (irritant if viability 50% and below) compared with European Union class: ECVAM protocol; for Calu-3 %Viability ± SD: 60 min incubation, MTT, relative to negative control, n = 4; for Calu-3 cells killed: 0.2% w/v
Method: (§1) The Calu-3 cells were used at passages 5–10. They were cultured in 96-well plates (Fisher Scientific) in 1:1 DMEM/F-12 supplemented with 10% FBS, 1% Glutamax®, 100 U/mL penicillin, and […] streptomycin using our previously described method. The tissue culture medium was changed every two days.
(§2) Irritant selection, concentration and exposure time were based on mucociliary clearance time and published work in which the compounds were used. […] In order to provide a basis for comparison with other published work using other models three concentrations of the chemicals were selected (0.2%, 0.4% and 1.0%). To initiate the experiments, the cells were washed 3 times with PBS and allowed to equilibrate in 100 µL of buffered DMEM/F-12 (without phenol red) for 30 min. […] Cells were observed under the microscope for detachment before discarding the test solutions. Subsequently, the effect of the test compounds on the cells was determined using MTT assay.
(§3) Cell viability screening was based on cellular mitochondrial dehydrogenase (MDH) activity, measured by MTT reduction and conversion to blue formazan salt that was quantified after extraction from cells. MTT was used for predicting respiratory irritation because several studies have shown correlation between reduction in cell viability, decrease in epithelial electrical resistance and increases in biomarkers such as IL-1α and IL-1β. Cells grown in 96-well plates were used for the studies. After exposure of the cells to the solution of test compounds, the solutions were discarded and 100 μL of MTT (5.0 mg/mL) added to each well and incubated for 3 h at 37 °C. Subsequently, the MTT solution was removed and replaced with 100 μL isopropyl alcohol. The plates were then wrapped in aluminium foil and incubated for 2 h at 37 °C in order to extract formazan from the cells. Extracted formazan salt was quantified spectrophotometrically at 570 nm using Synergy™ HT multimode microplate reader (BioTek Instruments Incorporated). The absorbance of isopropyl alcohol (100 μL) was used as blank. The reduction of cell viability in treated cells was compared to negative control (cells incubated with DMEM/F-12) and expressed as a percentage.
(§4) Data acceptance criteria, calculation steps, interpretation and prediction model was done using the ECVAM Skin irritation Validation Study as contained in Standard Operating Procedure of Validation of the EpiSkin™ Test Method ^15 min–42 h for the prediction of acute skin irritation of chemicals. This was chosen because the model, as well as the cell viability assay method (MTT) has been accepted by intergovernmental agencies as being able to distinguish between irritants and non-irritants. However, we modified drug exposure time to reflect respiratory route of administration (15–60 min). […] Test compounds with mean relative viability values of 50% and below were considered irritant (I); those above 50% were considered non-irritant (NI) according to the ECVAM protocol.

eye = tested on: eye; set-up: method as in PMID 12140180; conditions: ECETOC eye irritation data bank, ref [12], cited from earlier work; for European Union Irritation Class: Non-Irritating / European Union Irritation Class: R41 Risk of Serious Damage to Eye / European Union Irritation Class: R36 Irritating to Eye: tick = compound belongs to this class
[1] = MTT cell viability assay on Calu-3 cells after exposure to test solutions; assay type: cell-based, Human; conditions: human, 60 min incubation, MTT, relative to negative control, n = 4, read-out: Calu-3 %Viability ± SD; for viability at 60 min, 0.2 % w/v: 0.2% w/v test solution; for viability at 60 min, 1 % w/v: 1.0% w/v test solution
Method: as §1, §2, §3, §4

Arion lusitanicus = tested on: Arion lusitanicus; set-up: method as in Adriaens and Remon (2002) [12]; conditions: slug mucosal irritation model; ref Adriaens and Remon (2002) [12]; cited from earlier work
[2] = set-up: method as in earlier work; conditions: ref [19],[20], cited from earlier work

Molecule | Calu-3 model prediction (irritant if viability 50% and below) compared with European Union class (Calu-3 cells; 0.2% w/v test solution) | Calu-3 %Viability ± SD (Calu-3 cells; 0.2% w/v test solution) | Calu-3 %Viability ± SD (Calu-3 cells; 1.0% w/v test solution) | European Union Irritation Class: Non-Irritating (eye) | viability at 60 min, 0.2 % w/v ([1]; Calu-3 cells) | viability at 60 min, 1 % w/v ([1]; Calu-3 cells) | Calu-3 model prediction (irritant if viability 50% and below) compared with European Union class (Calu-3 cells; 1.0% w/v test solution) | European Union Class (eye; as listed in Table 2) | European Union Class (eye; as listed in Table 3) | European Union Irritation Class: R41 Risk of Serious Damage to Eye (eye) | SMI model prediction compared with European Union class (Arion lusitanicus) | viability at 60 min, 1 % w/v [1] | Log p Octanol–Water [2] | Calu-3 cells killed (Calu-3 cells) | Calu-3 %Viability ± SD (Calu-3 cells; 1.0% w/v test solution, listed as sodium dodecyl sulphate USP) | European Union Irritation Class: R36 Irritating to Eye (eye) | Calu-3 %Viability ± SD (Calu-3 cells; 1.0% w/v test solution, listed as sodium hydroxide) | Calu-3 %Viability ± SD (Calu-3 cells; 0.2% w/v test solution, listed as acetone) | Log p Octanol–Water ([2]; listed as acetone)
CCO [Anhydrous ethanol] | correctly predicted | 99.1 ± 3.9% | 90.3 ± 8.0% | √ | – | – | – | – | – | – | – | – | – | – | – | – | – | – | –
Nc1ccc(F)cc1 [4-Fluoroaniline] | false negatives | – | – | – | 115 ± 5.9% | 75.6 ± 10.9% | false negatives | R41 | R41 | √ | – | – | – | – | – | – | – | – | –
CCCCCCCCCCCCCCCC[n+]1ccccc1 [Cetylpyridinium bromide] | correctly predicted | – | – | – | 8.1 ± 1.1% | 5.4 ± 0.6% | correctly predicted | R41 | R41 | √ | correct predictions | < 17% | 1.83 | – | – | – | – | – | –
O=C([O-])C(=O)[O-].[Na+].[Na+] [Sodium oxalate] | false negative | 65.4 ± 4.0% | 64.5 ± 11.5% | – | – | – | false negatives | R41 | R41 | √ | – | – | – | – | – | – | – | – | –
CC(=O)CC(C)C [Methyl isobutyl ketone] | correctly identified as non-irritant | no significant effect on the cell viability | – | √ | 73.2 ± 7.4% | 90.3 ± 7.1% | – | – | – | – | wrongly classified | – | – | – | – | – | – | – | –
c1c[nH]cn1 [Imidazole] | – | – | – | – | – | – | – | R41 | R41 | – | – | – | – | – | – | – | – | – | –
CCCC(C)CO (stereo not drawn) [2-Methyl-1-pentanol] | correctly predicted | 95.0 ± 13.1% | – | √ | 95.3 ± 13.1% | 2.9 ± 0.2% | false positive | – | – | – | – | – | 1.75 | – | – | – | – | – | –
COCC(O)CO (stereo not drawn) [3-Methoxy-1,2-propanediol] | correctly predicted | – | – | √ | 92.6 ± 4.1% | 90.7 ± 4.3% | – | – | – | – | – | – | −1.20 | – | – | – | – | – | –
Tween 20 | correctly predicted | 57.1 ± 8.1% | 43.9 ± 2.5% | √ | – | – | false positive | – | – | – | correct predictions | – | 2.39 | – | – | – | – | – | –
CCCCCCCCCCCCOS(=O)(=O)[O-].[Na+] [Sodium dodecyl sulphate USP] | correctly predicted | 4.3 ± 0.1% | 9.0 ± 0.1% | – | – | – | correctly predicted | R36 | R36 | – | over-predictions | – | 1.60 | more than 90% | less than 17% | √ | – | – | –
OCC(O)CO [Glycerol] | correctly predicted | – | – | √ | 85.6 ± 8.7% | 86.5 ± 7% | – | – | – | – | – | – | – | – | – | – | – | – | –
Triton X-100 | correctly predicted | 3.5 ± 0.5% | – | – | – | – | correctly predicted | R36 | R36 | – | over-predictions | – | 4.15 | more than 90% | – | √ | – | – | –
Cc1ccccc1 [Toluene] | – | – | – | √ | 85.7 ± 13% | 110 ± 6.6% | – | – | – | – | – | – | – | – | – | – | – | – | –
PEG 600 | correctly predicted | 85.9 ± 13.4% | 81.7 ± 10.8% | √ | – | – | – | – | – | – | – | – | −1.21 | – | – | – | – | – | –
OC1CCCCC1 [Cyclohexanol] | false negatives | 89.9 ± 14.3% | 78.7 ± 11.7% | – | – | – | false negatives | R41 | R41 | √ | – | – | 1.23 | – | – | – | – | – | –
PEG 400 | correctly predicted | 91.5 ± 4.6% | 92.2 ± 15.9% | √ | – | – | – | – | – | – | – | – | −1.21 | – | – | – | – | – | –
[Na+].[OH-] [Sodium hydroxide] | – | 4.6 ± 0.4% | 14.9 ± 1.2% | – | – | – | correctly predicted | R41 | R41 | √ | – | – | 0 | about 95% | – | – | less than 17% | – | –
CC(C)=O [Acetone] | false negative | 100.4 ± 13.7% | 95.4 ± 16.5% | – | – | – | false negatives | R36 | R36 | – | false negative | – | −0.24 | – | – | √ | – | no significant effect on the cell viability | negative Log p values

From paper PMC4085599, “Preliminary Studies on Validation of Calu-3 Cell Line as a Model for Screening Respiratory Mucosa Irritation and Toxicity” (Pharmaceutics, 2014)
